One may read the logP as a log measure of how a compound divides between an organic and an aqueous phase. Higher therefore signals higher lipophilicity.

These results are taken from patent US7906656B2, “Iodopyrazolyl carboxanilides” (Bayer CropScience AG, priority 2003, dated 2011).

One data set concerns Botrytis cinerea. The experiment in a line: Botrytis test (bean)/protective. The settings on record: 48 h, protective, application rate 100 g/ha, evaluation 2 days after inoculation, read-out: Efficacy in %. It is filed as in vivo. How it is done:
To produce a suitable preparation of active compound, 1 part by weight of active compound is mixed with the stated amounts of solvents and emulsifier, and the concentrate is diluted with water to the desired concentration. To test for protective activity, young plants are sprayed with the preparation of active compound at the stated application rate. After the spray coating has dried on, 2 small pieces of agar colonized with Botrytis cinerea are placed onto each leaf. The inoculated plants are placed in a darkened chamber at about 20° C. and 100% relative atmospheric humidity. 2 days after the inoculation, the size of the infected areas on the leaves is evaluated. 0% means an efficacy which corresponds to that of the control, whereas an efficacy of 100% means that no infection is observed.
Consider `CC(C)CCc1ccccc1NC(=O)c1cn(C)nc1I` [drawing 98], for which the pest or weed control at 100 g/ha turned out to be 98%. The same measure, in the same setting: the figure for `Cn1cc(C(=O)Nc2ccccc2-c2ccc(I)cc2)c(I)n1` [drawing 97] is 100%. Same read-out and setting: in the case of `Cn1cc(C(=O)Nc2ccccc2-c2ccc(Cl)cc2)c(I)n1` [drawing 96] it was 100%; in that of `CC(C)CC(C)c1cc(F)ccc1NC(=O)c1cn(C)nc1I` (stereo not drawn) [drawing 100], 100%. Turning to `CC1CC(C)(C)c2cccc(NC(=O)c3cn(C)nc3I)c21` (stereo not drawn) [drawing 99], the pest or weed control at 100 g/ha amounted to 100%. The same measure, in the same setting: in the case of `Cn1cc(C(=O)Nc2ccc(F)cc2-c2ccc(Cl)c(Cl)c2)c(I)n1` [drawing 88] it was 100%.

The same data set, now with this note: 48 h, protective, application rate 500 g/ha, evaluation 2 days after inoculation, read-out: Efficacy in %.
On to `Cn1cc(C(=O)Nc2ccccc2-c2ccc(Br)cc2)c(I)n1` [drawing 90], for which the pest or weed control at 500 g/ha is 100%. On the same count and under the same terms, in the case of `Cn1cc(C(=O)Nc2ccccc2-c2ccc(Cl)c(F)c2)c(I)n1` [drawing 91] it was 100%; in that of `Cn1cc(C(=O)Nc2ccccc2-c2ccc(C(F)(F)F)cc2)c(I)n1` [drawing 94], 94%. On the same count and under the same terms, in the case of `CC(C)CC(C)c1ccccc1NC(=O)c1cn(C)nc1I` (stereo not drawn) [drawing 86] it was 100%; in that of `Cn1cc(C(=O)Nc2ccccc2-c2ccc(Cl)c(Cl)c2)c(I)n1` [drawing 87], 100%; in that of `Cn1cc(C(=O)Nc2ccccc2-c2ccc(F)c(Cl)c2)c(I)n1` [drawing 89], 100%. With `Cn1cc(C(=O)Nc2ccccc2-c2ccc(C(F)(F)F)c(F)c2)c(I)n1` [drawing 95], the pest or weed control at 500 g/ha was 100%.

Consider `Cc1ccc(-c2ccccc2NC(=O)c2cn(C)nc2I)cc1F` [drawing 93], for which the pest or weed control at 500 g/ha was 100%. Regarding `CCCO/N=C/c1ccc(-c2ccccc2NC(=O)c2cn(C)nc2I)cc1F` [drawing 92], the pest or weed control at 500 g/ha came out at 100%. Same read-out and setting: the figure for `CC(CC(C)(C)C)c1ccccc1NC(=O)c1cn(C)nc1I` (stereo not drawn) [drawing 85] is 100%.

In the next data set the test system is Puccinia recondita. The experiment in a line: Puccinia test (wheat)/protective. The note with it: 240 h, protective, application rate 500 g/ha, evaluation 10 days after inoculation, read-out: Efficacy in %. It is filed as in vivo. The protocol:
To produce a suitable preparation of active compound, 1 part by weight of active compound is mixed with the stated amounts of solvent and emulsifier, and the concentrate is diluted with water to the desired concentration. To test for protective activity, young plants are sprayed with the preparation of active compound at the stated application rate. After the spray coating has dried on, the plants are sprayed with a conidia suspension of Puccinia recondita. The plants remain in an incubation cabin at 20° C. and 100% relative atmospheric humidity for 48 hours. The plants are then placed in a greenhouse at a temperature of about 20° C. and a relative atmospheric humidity of 80% to promote the development of rust pustules. Evaluation is carried out 10 days after the inoculation. 0% means an efficacy which corresponds to that of the control, whereas an efficacy of 100% means that no infection is observed.
As for `Cn1cc(C(=O)Nc2ccccc2-c2ccc(Cl)c(Cl)c2)c(I)n1` [drawing 115], the pest or weed control at 500 g/ha is 100%. Same read-out and setting: in the case of `C=C(CC(C)(C)C)c1ccccc1NC(=O)c1cn(C)nc1I` [drawing 124] it was 100%. For `Cn1cc(C(=O)Nc2ccccc2-c2ccc(Br)cc2)c(I)n1` [drawing 118], the pest or weed control at 500 g/ha was determined as 100%. Take `CC(=O)N(C(=O)c1cn(C)nc1I)c1ccccc1C(C)CC(C)C` (stereo not drawn) [drawing 120]: the pest or weed control at 500 g/ha was determined as 100%.

On to `Cn1cc(C(=O)Nc2ccccc2-c2ccc(C(F)(F)F)c(F)c2)c(I)n1` [drawing 119], for which the pest or weed control at 500 g/ha is 100%.

Another data set deals with Venturia inaequalis. The experiment in a line: Venturia test (apple)/protective. It is filed as in vivo. The settings on record: 240 h, protective, application rate 100 g/ha, evaluation 10 days after inoculation, read-out: Efficacy in %. The protocol: (§1) To produce a suitable preparation of active compound, 1 part by weight of active compound is mixed with the stated amounts of solvents and emulsifier, and the concentrate is diluted with water to the desired concentration. To test for protective activity, young plants are sprayed with the preparation of active compound at the stated application rate. After the spray coating has dried on, the plants are inoculated with an aqueous conidia suspension of the apple pathogen Venturia inaequalis and then remain in an incubation cabin at about 20° C. and 100% relative atmospheric humidity for 1 day. The plants are then placed in a greenhouse at about 21° C. and a relative atmospheric humidity of about 90%. Evaluation is carried out 10 days after the inoculation. 0% means an efficacy which corresponds to that of the control, whereas an efficacy of 100% means that no infection is observed.
Consider `Cc1ccc(-c2ccccc2NC(=O)c2cn(C)nc2I)cc1F` [drawing 77], for which the pest or weed control at 100 g/ha was 97%. Turning to `CC(C)CC(C)c1cc(F)ccc1NC(=O)c1cn(C)nc1I` (stereo not drawn) [drawing 84], the pest or weed control at 100 g/ha is 100%. The same measure, in the same setting: in the case of `Cn1cc(C(=O)Nc2ccc(F)cc2-c2ccc(Cl)c(Cl)c2)c(I)n1` [drawing 72] it was 100%. On the same count and under the same terms, the figure for `CC(CC(C)(C)C)c1ccccc1NC(=O)c1cn(C)nc1I` (stereo not drawn) [drawing 69] is 100%; for `Cn1cc(C(=O)Nc2ccccc2-c2ccc(C(F)(F)F)cc2)c(I)n1` [drawing 78] it is 94%.

With `Cn1cc(C(=O)Nc2ccccc2-c2ccc(I)cc2)c(I)n1` [drawing 81], the pest or weed control at 100 g/ha was 99%. On the same count and under the same terms, the figure for `Cn1cc(C(=O)Nc2ccccc2-c2ccc(Cl)cc2)c(I)n1` [drawing 80] is 100%; for `CC(C)CCc1ccccc1NC(=O)c1cn(C)nc1I` [drawing 82] it is 98%; for `Cn1cc(C(=O)Nc2ccccc2-c2ccc(Br)cc2)c(I)n1` [drawing 74] it is 100%.

For `CC1CC(C)(C)c2cccc(NC(=O)c3cn(C)nc3I)c21` (stereo not drawn) [drawing 83], the pest or weed control at 100 g/ha is 100%.

On to `CC(C)CC(C)c1ccccc1NC(=O)c1cn(C)nc1I` (stereo not drawn) [drawing 70], for which the pest or weed control at 100 g/ha came out at 100%. For the compound `Cn1cc(C(=O)Nc2ccccc2-c2ccc(Cl)c(F)c2)c(I)n1` [drawing 75], the pest or weed control at 100 g/ha worked out at 100%. On to `Cn1cc(C(=O)Nc2ccccc2-c2ccc(C(F)(F)F)c(F)c2)c(I)n1` [drawing 79], for which the pest or weed control at 100 g/ha stood at 98%. The same measure, in the same setting: in the case of `Cn1cc(C(=O)Nc2ccccc2-c2ccc(Cl)c(Cl)c2)c(I)n1` [drawing 71] it was 99%; in that of `Cn1cc(C(=O)Nc2ccccc2-c2ccc(F)c(Cl)c2)c(I)n1` [drawing 73], 100%.

With `CCCO/N=C/c1ccc(-c2ccccc2NC(=O)c2cn(C)nc2I)cc1F` [drawing 76], the pest or weed control at 100 g/ha was 100%.

Tested on in a further data set: not listed separately
In words: log P determination by HPLC on reversed-phase column (EEC directive 79/831 Annex V.A8). The note with it: pH 2.3; HPLC reversed-phase C18, 43° C. It is filed as physicochemical. How it is done:
The given log P values were determined in accordance with EEC directive 79/831 Annex V.A8 by HPLC (High Performance Liquid Chromatography) on a reversed-phase column (C18). Temperature: 43° C. Mobile phases for the determination in the acidic range (pH 2.3): 0.1% aqueous phosphoric acid, acetonitrile; linear gradient from 10% acetonitrile to 90% acetonitrile. Calibration was carried out using unbranched alkan-2-ones (having 3 to 16 carbon atoms) with known log P values (determination of the log P values by the retention times using linear interpolation between two successive alkanones).
`Cn1cc(C(=O)Nc2ccccc2-c2ccc(C(F)(F)F)cc2)c(I)n1` [Compound 10] gave a logP of 3.24.

`Cn1cc(C(=O)Nc2ccccc2CCC(C)(C)C)c(I)n1` [Compound 18] registered a logP of 3.34.

For the compound `Cn1cc(C(=O)Nc2ccccc2-c2cccc(Cl)c2Cl)c(I)n1` [Compound 28], the logP is listed as 3.34. The compound `Cn1cc(C(=O)Nc2ccccc2-c2ccc(C(F)(F)F)c(F)c2)c(I)n1` [Compound 11] returned a logP of 3.23.

The subject of another data set is Podosphaera leucotricha. The experiment in a line: Podosphaera test (apple)/protective. It is filed as in vivo. The note with it: 240 h, protective, application rate 100 g/ha, evaluation 10 days after inoculation, read-out: Efficacy in %. How it is done:
as §1, with “spore” for “conidia”, “apple mildew” for “apple”, “Podosphaera leucotricha.” for “Venturia inaequalis and then remain in an incubation cabin at about 20° C. and 100% relative atmospheric humidity for 1 day.”, “23°” for “21°”, “70%.” for “90%.”
On to `Cn1cc(C(=O)Nc2ccccc2-c2ccc(C(F)(F)F)c(F)c2)c(I)n1` [drawing 63], for which the pest or weed control at 100 g/ha came to 99%. Same read-out and setting: the figure for `CC(C)CC(C)c1ccccc1NC(=O)c1cn(C)nc1I` (stereo not drawn) [drawing 54] is 100%; for `Cc1ccc(-c2ccccc2NC(=O)c2cn(C)nc2I)cc1F` [drawing 61] it is 100%; for `CC(CC(C)(C)C)c1ccccc1NC(=O)c1cn(C)nc1I` (stereo not drawn) [drawing 53] it is 100%.

Take `Cn1cc(C(=O)Nc2ccccc2-c2ccc(Cl)c(Cl)c2)c(I)n1` [drawing 55]: the pest or weed control at 100 g/ha is 99%. The same measure, in the same setting: the figure for `Cn1cc(C(=O)Nc2ccccc2-c2ccc(Br)cc2)c(I)n1` [drawing 58] is 100%; for `CC1CC(C)(C)c2cccc(NC(=O)c3cn(C)nc3I)c21` (stereo not drawn) [drawing 67] it is 100%. Same read-out and setting: in the case of `CCCO/N=C/c1ccc(-c2ccccc2NC(=O)c2cn(C)nc2I)cc1F` [drawing 60] it was 100%; in that of `Cn1cc(C(=O)Nc2ccccc2-c2ccc(C(F)(F)F)cc2)c(I)n1` [drawing 62], 88%; in that of `Cn1cc(C(=O)Nc2ccccc2-c2ccc(Cl)c(F)c2)c(I)n1` [drawing 59], 100%. On the same count and under the same terms, in the case of `Cn1cc(C(=O)Nc2ccc(F)cc2-c2ccc(Cl)c(Cl)c2)c(I)n1` [drawing 56] it was 100%; in that of `Cn1cc(C(=O)Nc2ccccc2-c2ccc(I)cc2)c(I)n1` [drawing 65], 100%; in that of `Cn1cc(C(=O)Nc2ccccc2-c2ccc(F)c(Cl)c2)c(I)n1` [drawing 57], 100%. As for `CC(C)CCc1ccccc1NC(=O)c1cn(C)nc1I` [drawing 66], the pest or weed control at 100 g/ha stood at 98%. Turning to `CC(C)CC(C)c1cc(F)ccc1NC(=O)c1cn(C)nc1I` (stereo not drawn) [drawing 68], the pest or weed control at 100 g/ha was 100%. For `Cn1cc(C(=O)Nc2ccccc2-c2ccc(Cl)cc2)c(I)n1` [drawing 64], the pest or weed control at 100 g/ha was found to be 100%.
